The record followed here is patent US20190185479A1, “BICYCLIC NITROGENATED HETEROCYCLIC COMPOUND” (MITSUBISHI TANABE PHARMA CORPORATION, priority 2016, published 2019).

Holding throughout (assay type): biochemical
For one experiment, the target named is T1, Human PDE7B (hPDE7B) (Homo sapiens, UniProt Q9NP56).
T1 construct: made in house; host or cells: COS-7 cells
Briefly: Measurement of PDE7 inhibitory activity (Experimental Example 1; residual cAMP, LANCE Ultra cAMP TR-FRET). To be noted: cAMP 3 nmol/L, room temperature 60 minutes. In a few lines:
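hPDE7B from transfected COS-7 cells reacted with 3 nmol/L cAMP (final) and compound (2% DMSO) in 50 mmol/L Tris-HCl pH 7.5, 1 mmol/L MgCl2, 0.1% BSA, 0.5 mmol/L DTT, 60 min at room temperature. Reaction stopped with IBMX; residual cAMP measured by TR-FRET. Inhibition scaled between no-compound and no-enzyme controls.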

A further experiment has as its target T2, hPDE4D (Homo sapiens, UniProt Q08499).
T2 construct: purchased SB Drug Discovery
Briefly: PDE4 inhibition assay (IC50), Experimental Example 3. The settings on record: hPDE4D; read-out: PDE inhibition assay IC50, PDE4. The procedure: (§1) PDE7 inhibitory assay was carried out by reacting the mixture of a compound, hPDE7B, and cAMP, and measuring the residual cAMP by a detection method using LANCE (registered trademark) Ultra cAMP Detection Kit (ParkinElmer). The compound was dissolved in DMSO, and diluted so that the concentration would become 50 times of the final concentration. The hPDE7B and cAMP were diluted with an assay buffer (50 mmol/L Tris-HCl, 1 mmol/L MgCl2, 0.1% BSA, 0.5 mmol/L DTT, pH7.5) so that the hPDE7B would have an appropriate enzyme activity and the concentration of cAMP would become 6 nmol/L. To a 96 well plate were added the compound (2 μL) (DMSO final concentration: 2%), hPDE7B (48 μL), and cAMP (50 μL) (concentration at the reaction: 3 nmol/L), and the resulting mixture was reacted at room temperature for 60 minutes. The reaction solution (20 μL) was subjected to a TR-FRET method according to the protocol specified by the kit to measure the concentration of the residual cAMP. In the assay, to a tracer solution specified by the kit was added 0.5 mmol/L of 3-isobutyl-1-methylxanthine (IBMX, nonselective PDE inhibitor) in order to stop the PDE enzyme reaction after the completion of reaction until the measurement.
(§2) The prediction of PDE7 selectivity was evaluated by comparing each IC50 value of a compound against PDE4, 8, and 10 with the IC50 value of said compound against PDE7B.
(§3) hPDE4D, hPDE8B, and hPDE10A were prepared by the same method as [Method for preparing samples 2].
(§4) PDE4, 8, and 10 inhibitory assays were carried out by the same method as [Assay procedure 1].
(§5) The reaction without a compound wad defined as “0% inhibition”, the reaction without each PDE was defined as “100% inhibition”, and the calculation of IC50 value was carried out by the same method as <Method for data calculation 1>.

The next experiment deals with T3, hPDE8B (Homo sapiens, UniProt O95263).
T3 construct: purchased SB Drug Discovery
T3 sequence (O95263 whole entry): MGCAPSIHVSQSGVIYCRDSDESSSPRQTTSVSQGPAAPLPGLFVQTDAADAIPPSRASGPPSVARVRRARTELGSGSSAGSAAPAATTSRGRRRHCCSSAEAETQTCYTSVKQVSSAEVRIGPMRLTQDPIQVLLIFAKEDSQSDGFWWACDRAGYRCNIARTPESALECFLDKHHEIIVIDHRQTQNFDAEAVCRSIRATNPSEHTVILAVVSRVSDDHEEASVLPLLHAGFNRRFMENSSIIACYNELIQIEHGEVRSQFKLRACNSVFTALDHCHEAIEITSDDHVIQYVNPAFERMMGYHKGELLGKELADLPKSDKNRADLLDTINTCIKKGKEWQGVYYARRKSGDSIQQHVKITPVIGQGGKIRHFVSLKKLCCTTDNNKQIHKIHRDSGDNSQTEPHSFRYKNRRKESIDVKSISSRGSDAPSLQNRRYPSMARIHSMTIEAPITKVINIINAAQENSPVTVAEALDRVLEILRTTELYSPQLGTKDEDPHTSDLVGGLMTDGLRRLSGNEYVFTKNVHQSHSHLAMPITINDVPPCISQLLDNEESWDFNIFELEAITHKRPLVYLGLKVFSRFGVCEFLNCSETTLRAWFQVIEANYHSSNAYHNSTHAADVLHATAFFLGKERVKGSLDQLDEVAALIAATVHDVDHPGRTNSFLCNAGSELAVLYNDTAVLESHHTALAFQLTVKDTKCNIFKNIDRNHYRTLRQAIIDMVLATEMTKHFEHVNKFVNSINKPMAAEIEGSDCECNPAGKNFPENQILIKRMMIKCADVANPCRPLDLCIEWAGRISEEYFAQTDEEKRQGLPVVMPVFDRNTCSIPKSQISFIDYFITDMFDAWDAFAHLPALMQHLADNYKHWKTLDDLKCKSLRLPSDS
In words: PDE8 inhibition assay (IC50), Experimental Example 3. To be noted: for IC50: hPDE8B, read-out: PDE inhibition assay IC50, PDE8; for inhibition at 1 µM: at 1 μmol/L. The procedure:
as §1, §2, §3, §4, §5

Another experiment addresses hPDE10A (Homo sapiens, UniProt Q9Y233). In words: PDE10 inhibition assay (IC50), Experimental Example 3. The settings on record: for IC50: hPDE10A, read-out: PDE inhibition assay IC50, PDE10; for inhibition at 10 µM: read-out: inhibition rate (%) at prescribed concentration, PDE10. The procedure:
as §1, §2, §3, §4, §5

The mark [1] stands for this setting: read-out: inhibition rate (%) at prescribed concentration, PDE8.

Molecules are shown by their SMILES.

T2 sequence (Q08499 whole entry): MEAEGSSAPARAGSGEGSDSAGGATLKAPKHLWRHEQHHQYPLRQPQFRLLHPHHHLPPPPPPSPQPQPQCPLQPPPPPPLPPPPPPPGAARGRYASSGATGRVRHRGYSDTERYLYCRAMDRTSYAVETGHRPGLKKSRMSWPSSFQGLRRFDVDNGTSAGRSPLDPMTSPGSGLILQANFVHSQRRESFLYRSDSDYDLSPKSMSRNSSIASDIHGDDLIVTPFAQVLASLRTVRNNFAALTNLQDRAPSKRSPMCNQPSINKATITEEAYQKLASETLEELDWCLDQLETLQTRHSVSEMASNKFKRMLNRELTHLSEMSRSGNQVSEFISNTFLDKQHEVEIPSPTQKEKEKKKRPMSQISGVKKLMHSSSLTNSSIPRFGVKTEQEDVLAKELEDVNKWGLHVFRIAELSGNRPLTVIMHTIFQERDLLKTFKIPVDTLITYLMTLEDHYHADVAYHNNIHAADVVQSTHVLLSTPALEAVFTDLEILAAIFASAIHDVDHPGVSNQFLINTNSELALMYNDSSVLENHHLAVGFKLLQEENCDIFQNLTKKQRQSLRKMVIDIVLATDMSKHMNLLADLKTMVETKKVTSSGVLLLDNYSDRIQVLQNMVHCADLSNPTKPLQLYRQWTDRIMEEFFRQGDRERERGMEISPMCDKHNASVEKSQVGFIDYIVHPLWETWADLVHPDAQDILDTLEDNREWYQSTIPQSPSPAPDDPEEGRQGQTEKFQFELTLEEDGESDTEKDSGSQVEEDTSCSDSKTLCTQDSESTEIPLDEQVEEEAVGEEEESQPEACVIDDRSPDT
Sequence of hPDE10A (Q9Y233 290-1055 limits assumed): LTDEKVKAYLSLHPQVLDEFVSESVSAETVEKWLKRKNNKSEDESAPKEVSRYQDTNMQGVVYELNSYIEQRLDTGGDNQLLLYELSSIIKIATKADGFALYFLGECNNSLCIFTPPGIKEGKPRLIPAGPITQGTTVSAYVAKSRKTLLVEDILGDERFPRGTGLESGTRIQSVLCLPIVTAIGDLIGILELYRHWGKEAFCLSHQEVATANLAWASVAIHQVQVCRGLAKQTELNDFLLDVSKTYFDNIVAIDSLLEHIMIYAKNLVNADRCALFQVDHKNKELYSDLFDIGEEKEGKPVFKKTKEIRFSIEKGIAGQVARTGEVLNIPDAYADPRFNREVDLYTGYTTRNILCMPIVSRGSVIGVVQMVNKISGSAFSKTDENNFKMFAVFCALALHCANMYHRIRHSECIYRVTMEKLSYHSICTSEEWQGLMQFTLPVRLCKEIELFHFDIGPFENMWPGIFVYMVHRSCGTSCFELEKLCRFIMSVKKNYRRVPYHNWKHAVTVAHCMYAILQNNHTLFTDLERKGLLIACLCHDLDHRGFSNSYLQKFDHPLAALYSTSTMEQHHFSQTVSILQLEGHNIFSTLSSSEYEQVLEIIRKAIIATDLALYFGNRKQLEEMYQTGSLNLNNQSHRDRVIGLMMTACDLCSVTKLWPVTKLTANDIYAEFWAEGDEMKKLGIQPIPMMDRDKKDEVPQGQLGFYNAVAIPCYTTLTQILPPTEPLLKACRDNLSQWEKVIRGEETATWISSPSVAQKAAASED
T1 sequence (Q9NP56 whole entry): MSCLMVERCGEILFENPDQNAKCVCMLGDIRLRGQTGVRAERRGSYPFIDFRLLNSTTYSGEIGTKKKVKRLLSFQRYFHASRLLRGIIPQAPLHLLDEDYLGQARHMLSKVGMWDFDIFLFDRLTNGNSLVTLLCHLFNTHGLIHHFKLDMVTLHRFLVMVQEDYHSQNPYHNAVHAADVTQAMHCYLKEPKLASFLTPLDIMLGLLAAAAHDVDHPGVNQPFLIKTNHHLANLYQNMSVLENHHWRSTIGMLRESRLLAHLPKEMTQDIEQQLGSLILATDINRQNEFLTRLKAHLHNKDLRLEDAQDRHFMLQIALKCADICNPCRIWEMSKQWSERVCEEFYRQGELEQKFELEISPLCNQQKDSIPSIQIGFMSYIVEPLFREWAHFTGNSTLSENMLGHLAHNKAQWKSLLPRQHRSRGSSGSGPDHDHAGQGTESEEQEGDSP

`CC(C)(C)OC(=O)N1CCCCC1c1nnc2c(N)nccn12` (stereo not drawn) [Example 32, tert-butyl 2-(8-amino-[1,2,4]triazolo[4,3-a]pyrazin-3-yl)piperidine-1-carboxylate]: the IC50 against Human PDE7B (hPDE7B) amounted to 0.08 µM; on hPDE4D it was 5.78 µM; on hPDE8B, 2.27 µM; at hPDE10A, 22.6 µM.
`CC1(C)CCCN(c2nnc3c(N)ncc(C(F)(F)F)n23)C1` [Example 252, 3-(3,3-dimethylpiperidin-1-yl)-5-(trifluoromethyl) [1,2,4]triazolo[4,3-a]pyrazin-8-amine]: the IC50 was < 0.01 µM against Human PDE7B (hPDE7B), 1.8 µM at hPDE4D and 7.4 µM on hPDE10A. Besides, the inhibition at 1 µM at hPDE8B (setting [1]) stood at 53%.
In the case of `CC1CCC(C)N(c2nnc3c(N)nccn23)C1` (single isomer, unassigned) [Example 232, 3-(2,5-dimethylpiperidin-1-yl) [1,2,4]triazolo[4,3-a]pyrazin-8-amine], the IC50 at Human PDE7B (hPDE7B) stood at 0.003 µM; at hPDE4D it was 1.4 µM; at hPDE8B it was 4.6 µM; on hPDE10A, 0.35 µM.
On the same counts, the results for `Nc1nccn2c(C3CCC4CC4C3)nnc12` (single isomer, unassigned) [Example 219, 3-(bicyclo[4.1.0]hept-3-yl) [1,2,4]triazolo[4,3-a]pyrazin-8-amine] are 0.05 µM, 2.1 µM, 1.2 µM and 4.7 µM.
Turning to `CC1(C)CCCN(c2nnc3c(N)ncc(Cl)n23)C1` [Example 248, 5-chloro-3-(3,3-dimethylpiperidin-1-yl) [1,2,4]triazolo[4,3-a]pyrazin-8-amine], the concentration for half-maximal inhibition (IC50) was < 0.01 µM on Human PDE7B (hPDE7B), 1.88 µM at hPDE4D, 1.51 µM at hPDE8B and 5.57 µM at hPDE10A.
Consider `C[C@H]1CC[C@H](n2nnc3c(N)ncnc32)CC1` [Example 8, 3-(trans-4-methylcyclohexyl)-3H-[1,2,3]triazolo[4,5-d]pyrimidin-7-amine], for which the 50% inhibitory concentration (IC50) on Human PDE7B (hPDE7B) was 0.01 µM; on hPDE4D, 2.13 µM; on hPDE8B, 0.24 µM. Moreover, the inhibition at 10 µM at hPDE10A (at 10 μmol/L) is 48%.
Turning to `Nc1ncnn2c(C3CCCCC3)nnc12` [Example 68, 3-cyclohexyl[1,2,4]triazolo[3,4-f][1,2,4]triazin-8-amine], the values for the concentration for half-maximal inhibition (IC50) at Human PDE7B (hPDE7B), at hPDE4D and on hPDE8B were 0.02 µM, 4.13 µM and 0.5 µM, respectively. Further, the inhibition at 10 µM at hPDE10A (at 10 μmol/L) turned out to be 34%.
Regarding `Nc1ncnc2c1nnn2C1CCCCC1(F)F` (single isomer, unassigned) [Example 115, 3-(2,2-difluorocyclohexyl)-3H-[1,2,3]triazolo[4,5-d]pyrimidin-7-amine], the IC50 against Human PDE7B (hPDE7B) is < 0.01 µM; at hPDE4D it was 11.9 µM; on hPDE10A it was 12.3 µM. In addition, the inhibition at 1 µM on hPDE8B (setting [1]) worked out at 52%.
For `CC1CCCN(c2nnc3c(N)nccn23)C1C` (single isomer, unassigned) [Example 57, 3-(2,3-dimethylpiperidin-1-yl) [1,2,4]triazolo[4,3-a]pyrazin-8-amine], the IC50 against Human PDE7B (hPDE7B) worked out at 0.05 µM; on hPDE4D, 6.4 µM; on hPDE8B, 9.9 µM; on hPDE10A it was 8.7 µM.
Take `CC1CCC(F)(F)CC1c1nnc2c(N)nccn12` (single isomer, unassigned) [Example 175, 3-(cis-5,5-difluoro-2-methylcyclohexyl) [1,2,4]triazolo[4,3-a]pyrazin-8-amine]: the IC50 against Human PDE7B (hPDE7B) was < 0.01 µM; at hPDE4D, 14.9 µM; on hPDE8B, 19.5 µM; at hPDE10A, 1.9 µM.
`Nc1nccn2c(C3CCCC(C(F)(F)F)C3)nnc12` (single isomer, unassigned) [Example 210, 3-[cis-3-(trifluoromethyl)cyclohexyl][1,2,4]triazolo[4,3-a]pyrazin-8-amine]: the IC50 against Human PDE7B (hPDE7B) came to 0.013 µM; at hPDE4D it was 5.45 µM; at hPDE8B, 3.93 µM; on hPDE10A, 17.7 µM.
For the compound `Nc1nccn2c(N3CCCCC3)nnc12` [Example 166], the IC50 at Human PDE7B (hPDE7B) came to 0.16 µM; at hPDE4D it was 3.87 µM; on hPDE8B, 8.89 µM. In addition, the inhibition at 10 µM at hPDE10A (at 10 μmol/L) was found to be 39%.
As for `CC1CC(c2nnc3c(N)nccn23)CC(F)(F)C1` (single isomer, unassigned) [Example 214], the IC50 came out at 0.06 µM against Human PDE7B (hPDE7B), 6.4 µM at hPDE4D, 17.1 µM on hPDE8B and 15.7 µM at hPDE10A.
With `Nc1nccn2c(C3CCCCC3)ncc12` [Example 180, 3-cyclohexylimidazo[1,5-a]pyrazin-8-amine], the values for the half-maximal inhibitory concentration (IC50) against Human PDE7B (hPDE7B) and at hPDE4D were 0.39 µM and 7.8 µM, respectively. The inhibition at 10 µM at hPDE8B (at 10 μmol/L, read-out: inhibition rate (%) at prescribed concentration, PDE8) came to 36%; at hPDE10A (at 10 μmol/L), 41%.
As to `Nc1ncnn2c(C3CCCC(F)(F)C3)nnc12` (racemic) [Example 82, 3-(3,3-difluorocyclohexyl) [1,2,4]triazolo[3,4-f][1,2,4]triazin-8-amine], the IC50 came to 0.04 µM on Human PDE7B (hPDE7B), 6.21 µM on hPDE4D, 2.49 µM at hPDE8B and 17.9 µM at hPDE10A.
With `CC1CCC(C(F)(F)F)CC1c1nnc2c(N)nccn12` (single isomer, unassigned) [Example 174, 3-[2-methyl-5-(trifluoromethyl)cyclohexyl][1,2,4]triazolo[4,3-a]pyrazin-8-amine], the IC50 on Human PDE7B (hPDE7B) stood at 0.003 µM; at hPDE4D, 6 µM; on hPDE8B, 6.8 µM; at hPDE10A, 1.3 µM.
As for `CC1CCCC(n2nnc3c(N)ncnc32)C1` (single isomer, unassigned) [Example 199, 3-(trans-3-methylcyclohexyl)-3H-[1,2,3]triazolo[4,5-d]pyrimidin-7-amine], the IC50 was determined as 0.03 µM on Human PDE7B (hPDE7B), 3.84 µM on hPDE4D and 6.87 µM on hPDE8B. Besides, the “inhibition rate (%) at prescribed concentration, PDE10” value against hPDE10A (at 10 μmol/L) is recorded as 29% at 10.
In the case of `Nc1nccn2c([C@H]3C[C@@H](C(F)(F)F)CCC3(F)F)nnc12` (racemic) [Example 172, 3-[cis-2,2-difluoro-5-(trifluoromethyl)cyclohexyl][1,2,4]triazolo[4,3-a]pyrazin-8-amine], the IC50 on Human PDE7B (hPDE7B) is < 0.01 µM; at hPDE4D, 5.9 µM; on hPDE8B, 9 µM; on hPDE10A, 21.8 µM.
On the same counts, the results for `Nc1nccn2c([C@H]3CCCC(F)(F)C3)nnc12` [Example 212, 3-[(1S)-3,3-difluorocyclohexyl][1,2,4]triazolo[4,3-a]pyrazin-8-amine] are 0.04 µM, 15.9 µM, 6.07 µM and 15.6 µM.
The like results for `CC1(C)CCCN(c2nnc3c(N)nccn23)C1` [Example 26, 3-(3,3-dimethylpiperidin-1-yl) [1,2,4]triazolo[4,3-a]pyrazin-8-amine] were, in that order, 0.02 µM, 4.59 µM, 7.66 µM and 21.1 µM.
In the case of `CC1CCN(c2nnc3c(N)nccn23)C(C)C1` (racemic) [Example 62, 3-(2,4-dimethylpiperidin-1-yl) [1,2,4]triazolo[4,3-a]pyrazin-8-amine], the IC50 stood at 0.04 µM against Human PDE7B (hPDE7B), 4.3 µM on hPDE4D, 21.3 µM on hPDE8B and 7.1 µM on hPDE10A.
